Residues, ends and D or L forms follow the SMILES beside them.
Assays:
Type in all cases: cell-based
Actinomyces naeslundii = test: Metabolic activity, Biolog phenotype microarray; conditions: control without dipeptide = 1
Procedure: (§1) The extent of metabolic activity of the tested bacteria in the presence of the above-mentioned dipeptides after 24 hours and 48 hours was investigated through a high throughput phenotype microarray system (PM) for microbial cells (Biolog Inc.). Each PM can contain up to 95 different biochemical compounds (e.g. di-peptides) that may act as substrates for bacteria as well as one negative control, not containing the substrates. Microarray plates were used in which the different wells of each plate were pre-loaded (by the manufacturer, Biolog Inc.) with different di-peptides to be tested. Each bacterial species was tested using a separate microarray plate. Thus, a single bacterial species was tested with a variety of dipeptides on each particular plate. The microarrays are based on redox technology, using cell respiration as a universal reporter. Active cell respiration results in the reduction of a tetrazolium dye and in the formation of a strong color—for example, when using the tetrazolium dye “Biolog Redox Dye Mix D”, the color changes from transparent/colourless to purple when the dye is reduced. The observation of this color change indicates which of the substrates improve the metabolic activity and health of the cells. Each bacterial species was collected from blood agar plates (incubated for 48 hours anaerobically at 37° C.) and transferred to an IF-0 Base inoculation fluid (Biolog Inc.), which is a nutritionally poor medium. The resulting cell suspension was adjusted to a transmittance of 42% (relative to the transmittance of the base inoculation fluid with no bacterial species present) at 492 nm using a BioRad SmartSpec 3000 Photometer (the adjustment being effected by adding either further inoculation fluid or further bacteria until the transmittance of 42% was achieved). A 1:5 dilution of this suspension was prepared by mixing 3 mL of the 42% transmittance cell suspension with 15 mL of an inoculation fluid (which inoculation fluid was formed by mixing 11.6 mL sterile water, 62.5 mL IF-0 base inoculation fluid and 0.9 mL of the tetrazolium dye “Biolog Redox Dye mix D”), resulting in a final cell density which was equal to 85% transmittance using a BioRad SmartSpec 3000 Photometer. 680 μL of a 2M sodium succinate/200 μM ferric citrate solution in distilled water was added to 68 mL of the 85% transmittance cell suspension and 100 μL of this mixture was added to each well (the various di-peptides being already present in powder form in the relevant wells of the plate as obtained from the supplier i.e. Biolog Inc.). All plates were incubated in an anaerobic atmosphere at 37° C. Color changes were measured spectrophotometrically at 492 nm (Thermo Scientific Multiskan Ascent) at 24 hrs and 48 hrs using the same plate at both time points. […] After 24 hrs and 48 hrs under continuous shaking in a Multiscan microplate reader, the optical density (OD) of the synthetic medium at 24 hours and 48 hours was measured (using the microplate reader) at a wavelength of 492 nm for each combination of bacterium/dipeptide, and for each of their respective controls (i.e. which contained the particular bacterium but no dipeptide). […] The experiment was carried out three times for each combination of bacterium with dipeptide, with each repeat being carried out on a different day (thus providing three biological replicas). The controls were also carried out three times, as above. The values shown are the average (mean) of the three single values obtained (as detailed above) for each combination of bacterium with dipeptide, at 24 hrs and at 48 hrs.

Actinomyces viscosus = test: Metabolic activity, Biolog phenotype microarray; conditions: control without dipeptide = 1
Procedure: as §1

[1] = test system: Aggregatibacter actinomycetemcomitans; test: Metabolic activity, Biolog phenotype microarray; conditions: control without dipeptide = 1
Procedure: as §1

Capnocytophaga sputigena = test: Metabolic activity, Biolog phenotype microarray; conditions: control without dipeptide = 1
Procedure: as §1

Fusobacterium nucleatum = test: Metabolic activity, Biolog phenotype microarray; conditions: control without dipeptide = 1
Procedure: as §1

Porphyromonas gingivalis = test: Metabolic activity, Biolog phenotype microarray; conditions: control without dipeptide = 1
Procedure: as §1

Prevotella intermedia = test: Metabolic activity, Biolog phenotype microarray; conditions: control without dipeptide = 1
Procedure: as §1

Streptococcus gordonii = test: Metabolic activity, Biolog phenotype microarray; conditions: control without dipeptide = 1
Procedure: as §1

Streptococcus mitis = test: Metabolic activity, Biolog phenotype microarray; conditions: control without dipeptide = 1
Procedure: as §1

Streptococcus mutans = test: Metabolic activity, Biolog phenotype microarray; conditions: control without dipeptide = 1
Procedure: as §1

Streptococcus salivarius = test: Metabolic activity, Biolog phenotype microarray; conditions: control without dipeptide = 1
Procedure: as §1

Streptococcus sanguinis = test: Metabolic activity, Biolog phenotype microarray; conditions: control without dipeptide = 1
Procedure: as §1

Streptococcus sobrinus = test: Metabolic activity, Biolog phenotype microarray; conditions: control without dipeptide = 1
Procedure: as §1

Tannerella forsythia = test: Metabolic activity, Biolog phenotype microarray; conditions: control without dipeptide = 1
Procedure: as §1

Veillonella parvula = test: Metabolic activity, Biolog phenotype microarray; conditions: control without dipeptide = 1
Procedure: as §1

[2] = test system: beneficial oral bacteria and pathogenic oral bacteria; test: Metabolic activity, whole panel: prebiotic effect; conditions: for prebiotic effects (metabolic activity): 24 hrs, threshold value of 2; for speed of metabolism by beneficial versus pathogenic bacteria: value of 2 reached at 24 hrs for beneficial but not pathogenic bacteria
Procedure: Substrates that were able to increase the metabolic activity of at least one of the above beneficial bacteria while not or only minimally increasing the growth of the pathogenic bacteria are considered to be prebiotic substrates. The extent of metabolic activity of the tested bacteria in the presence of the above-mentioned dipeptides after 24 hours and 48 hours was investigated through a high throughput phenotype microarray system (PM) for microbial cells (Biolog Inc.). Each PM can contain up to 95 different biochemical compounds (e.g. di-peptides) that may act as substrates for bacteria as well as one negative control, not containing the substrates. Microarray plates were used in which the different wells of each plate were pre-loaded (by the manufacturer, Biolog Inc.) with different di-peptides to be tested. Each bacterial species was tested using a separate microarray plate. Thus, a single bacterial species was tested with a variety of dipeptides on each particular plate. The microarrays are based on redox technology, using cell respiration as a universal reporter. Active cell respiration results in the reduction of a tetrazolium dye and in the formation of a strong color—for example, when using the tetrazolium dye “Biolog Redox Dye Mix D”, the color changes from transparent/colourless to purple when the dye is reduced. The observation of this color change indicates which of the substrates improve the metabolic activity and health of the cells. Each bacterial species was collected from blood agar plates (incubated for 48 hours anaerobically at 37° C.) and transferred to an IF-0 Base inoculation fluid (Biolog Inc.), which is a nutritionally poor medium. The resulting cell suspension was adjusted to a transmittance of 42% (relative to the transmittance of the base inoculation fluid with no bacterial species present) at 492 nm using a BioRad SmartSpec 3000 Photometer (the adjustment being effected by adding either further inoculation fluid or further bacteria until the transmittance of 42% was achieved). A 1:5 dilution of this suspension was prepared by mixing 3 mL of the 42% transmittance cell suspension with 15 mL of an inoculation fluid (which inoculation fluid was formed by mixing 11.6 mL sterile water, 62.5 mL IF-0 base inoculation fluid and 0.9 mL of the tetrazolium dye “Biolog Redox Dye mix D”), resulting in a final cell density which was equal to 85% transmittance using a BioRad SmartSpec 3000 Photometer. 680 μL of a 2M sodium succinate/200 μM ferric citrate solution in distilled water was added to 68 mL of the 85% transmittance cell suspension and 100 μL of this mixture was added to each well (the various di-peptides being already present in powder form in the relevant wells of the plate as obtained from the supplier i.e. Biolog Inc.). All plates were incubated in an anaerobic atmosphere at 37° C. Color changes were measured spectrophotometrically at 492 nm (Thermo Scientific Multiskan Ascent) at 24 hrs and 48 hrs using the same plate at both time points. […] After 24 hrs and 48 hrs under continuous shaking in a Multiscan microplate reader, the optical density (OD) of the synthetic medium at 24 hours and 48 hours was measured (using the microplate reader) at a wavelength of 492 nm for each combination of bacterium/dipeptide, and for each of their respective controls (i.e. which contained the particular bacterium but no dipeptide). […] The experiment was carried out three times for each combination of bacterium with dipeptide, with each repeat being carried out on a different day (thus providing three biological replicas). The controls were also carried out three times, as above. The values shown are the average (mean) of the three single values obtained (as detailed above) for each combination of bacterium with dipeptide, at 24 hrs and at 48 hrs. […] This value was selected in order to exclude low-stimulating metabolites and avoid false positive results.

Compound | metabolic activity: OD 492 nm divided by OD of control (Actinomyces naeslundii; 24 hrs) | metabolic activity: OD 492 nm divided by OD of control (Actinomyces naeslundii; 48 hrs) | metabolic activity: OD 492 nm divided by OD of control (Actinomyces viscosus; 24 hrs) | metabolic activity: OD 492 nm divided by OD of control (Actinomyces viscosus; 48 hrs) | metabolic activity: OD 492 nm divided by OD of control ([1]; 24 hrs) | metabolic activity: OD 492 nm divided by OD of control ([1]; 48 hrs) | metabolic activity: OD 492 nm divided by OD of control (Capnocytophaga sputigena; 24 hrs) | metabolic activity: OD 492 nm divided by OD of control (Capnocytophaga sputigena; 48 hrs) | metabolic activity: OD 492 nm divided by OD of control (Fusobacterium nucleatum; 24 hrs) | metabolic activity: OD 492 nm divided by OD of control (Fusobacterium nucleatum; 48 hrs) | metabolic activity: OD 492 nm divided by OD of control (Porphyromonas gingivalis; 24 hrs) | metabolic activity: OD 492 nm divided by OD of control (Porphyromonas gingivalis; 48 hrs) | metabolic activity: OD 492 nm divided by OD of control (Prevotella intermedia; 24 hrs) | metabolic activity: OD 492 nm divided by OD of control (Prevotella intermedia; 48 hrs) | metabolic activity: OD 492 nm divided by OD of control (Streptococcus gordonii; 24 hrs) | metabolic activity: OD 492 nm divided by OD of control (Streptococcus gordonii; 48 hrs) | metabolic activity: OD 492 nm divided by OD of control (Streptococcus mitis; 24 hrs) | metabolic activity: OD 492 nm divided by OD of control (Streptococcus mitis; 48 hrs) | metabolic activity: OD 492 nm divided by OD of control (Streptococcus mutans; 24 hrs) | metabolic activity: OD 492 nm divided by OD of control (Streptococcus mutans; 48 hrs) | other results
CC(C)C(NC(=O)C(N)CO)C(=O)O (stereo not drawn) [Ser-Val] (H-Ser-Val-OH; configuration not given here) | 1.4073 | 1.7338 | 2.1120 | 2.4349 | 1.4527 | 1.9697 | 1.4541 | 1.4933 | 1.3741 | 1.5983 | 1.3880 | 1.9267 | 1.4709 | 1.7953 | 1.4328 | 1.7640 | 1.4166 | 1.8051 | 1.4622 | 2.0721 | metabolic activity: OD 492 nm divided by OD of control (Streptococcus salivarius; 24 hrs): 1.3826; metabolic activity: OD 492 nm divided by OD of control (Streptococcus salivarius; 48 hrs): 1.9626; metabolic activity: OD 492 nm divided by OD of control (Streptococcus sanguinis; 24 hrs): 1.2030; metabolic activity: OD 492 nm divided by OD of control (Streptococcus sanguinis; 48 hrs): 1.5280; metabolic activity: OD 492 nm divided by OD of control (Streptococcus sobrinus; 24 hrs): 1.3133; metabolic activity: OD 492 nm divided by OD of control (Streptococcus sobrinus; 48 hrs): 1.8354; metabolic activity: OD 492 nm divided by OD of control (Tannerella forsythia; 24 hrs): 1.2842; metabolic activity: OD 492 nm divided by OD of control (Tannerella forsythia; 48 hrs): 1.7260; metabolic activity: OD 492 nm divided by OD of control (Veillonella parvula; 24 hrs): 1.2776; metabolic activity: OD 492 nm divided by OD of control (Veillonella parvula; 48 hrs): 1.3095; prebiotic effects (metabolic activity) [2]: exhibited prebiotic effects; speed of metabolism by beneficial versus pathogenic bacteria [2]: metabolized faster by the beneficial bacteria than by the pathogenic bacteria
Ser-Leu | 1.4949 | 1.8831 | 2.2523 | 2.5540 | 1.6871 | 2.2912 | 1.9645 | 1.6522 | 1.4813 | 1.7358 | 1.4626 | 1.8440 | 1.5403 | 1.8484 | 1.5333 | 1.8912 | 1.6052 | 2.0461 | 1.6244 | 2.2977 | metabolic activity: OD 492 nm divided by OD of control (Streptococcus salivarius; 24 hrs): 1.4865; metabolic activity: OD 492 nm divided by OD of control (Streptococcus salivarius; 48 hrs): 2.0833; metabolic activity: OD 492 nm divided by OD of control (Streptococcus sanguinis; 24 hrs): 1.2625; metabolic activity: OD 492 nm divided by OD of control (Streptococcus sanguinis; 48 hrs): 1.6049; metabolic activity: OD 492 nm divided by OD of control (Streptococcus sobrinus; 24 hrs): 1.4887; metabolic activity: OD 492 nm divided by OD of control (Streptococcus sobrinus; 48 hrs): 2.0704; metabolic activity: OD 492 nm divided by OD of control (Tannerella forsythia; 24 hrs): 1.3950; metabolic activity: OD 492 nm divided by OD of control (Tannerella forsythia; 48 hrs): 1.8466; metabolic activity: OD 492 nm divided by OD of control (Veillonella parvula; 24 hrs): 1.4153; metabolic activity: OD 492 nm divided by OD of control (Veillonella parvula; 48 hrs): 1.4281; prebiotic effects (metabolic activity) [2]: exhibited prebiotic effects; speed of metabolism by beneficial versus pathogenic bacteria [2]: metabolized faster by the beneficial bacteria than by the pathogenic bacteria

— patent US10159640B2, “Prebiotic oral care compositions containing amino acids” (COLGATE-PALMOLIVE COMPANY, priority 2013, dated 2018)
